Values after ≈ are worked out from the molar mass of the structure shown.
How the values were obtained:
[1] = low solubility and high permeability; cited from earlier work
[2] = Saturation solubility of tacrolimus in different solvents; type: physicochemical; conditions: for solubility: thermodynamic from solid, room temperature
Description: Tacrolimus was dissolved in an organic solvent. Particularly, the saturation solubility of tacrolimus in different organic solvents was tested. Crystalline active ingredient was added to a defined amount of solvent at room temperature while stirring until an insoluble sediment was formed. After filtration, the concentration of active ingredient was quantified by HPLC in the supernatant.

For `C=CC[C@@H]1/C=C(\C)C[C@H](C)C[C@H](OC)[C@H]2O[C@@](O)(C(=O)C(=O)N3CCCC[C@H]3C(=O)O[C@H](/C(C)=C/[C@@H]3CC[C@@H](O)[C@H](OC)C3)[C@H](C)[C@@H](O)CC1=O)[C@H](C)C[C@@H]2OC` [Tacrolimus], the BCS class [1] is listed as “BCS class II”, the “Solubility in tested organic solvents” value [2] is listed as “soluble in all tested organic solvents” and the solubility ([2]; organic solvent or mixture, Acetic Acid) is listed as 545 mg/mL (≈ 678 mM). The solubility ([2]; organic solvent or mixture, DMSO) was 582 mg/mL (≈ 724 mM), the solubility ([2]; organic solvent or mixture, Ethanol) was 389 mg/mL (≈ 484 mM) and the solubility ([2]; organic solvent or mixture, iso-Propanol) was 243 mg/mL (≈ 302 mM). For the same compound, the solubility ([2]; Water) was 0.00076 mg/mL (≈ 0.000945 mM).
